In patent US20230162361A1, “ASSESSMENT OF SKIN TOXICITY IN AN IN VITRO TISSUE SAMPLES USING DEEP LEARNING” (Genentech, Inc., priority 2020, published 2023):
Read-outs that look alike come from different tables or passages of the source.

Key:
[1] = cited from earlier work
skin = settings: cited from earlier work; for Skin tox.: clinical skin toxicity (rash, pruritus, acne, dermatitis, alopecia, dry skin) in labels or publications; for clinical toxicity: clinical skin toxicity
[2] = system: reconstructed human epidermis (RHE) samples; experiment: 3D in vitro reconstructed human epidermis (RHE) model, viable epidermal thickness measured with the machine-learning model after 4-day treatment
Source text: A decrease in epidermal thickness of the skin may be a toxicity indication for skin toxicities as well as for cutaneous disease. For example, one can calculate a percentage by dividing the epidermal thickness of the skin after the treatment by a drug compound by the epidermal thickness before the treatment. If the percentage is smaller than 10%, it may indicate very severe toxicity; if the percentage is between 10% and 50%, it may indicate severe toxicity; if the percentage is between 50% and […], it may indicate mild toxicity; and if the percentage is larger than 90%, it may indicate rare or no toxicity. There are few preclinical methods for evaluating in vivo skin toxicity prior to clinical trial. The last two decades have seen the advent of in vitro human skin models, which have a proven record of accurately predicting clinical skin toxicity. FIG. 3A illustrates an example reconstructed human epidermis (RHE) model 300. These reconstituted human epidermal (RHE) models 300 may be metabolically and mitotically active 3D models of the normal human epidermis derived from cultured human epidermal keratinocytes. The RHE models 300 may have in vivo-like morphology and growth characteristics. […] The RHE models 300 may have keratinocytes only but no dermis, vasculature or immune/inflammatory cells.
FIG. 5A illustrates an example annotation of an RHE sample 310 with tissue sections. […] After the epidermal area is identified, the thickness of the viable epidermal area may be computed, e.g., based on distance transformation. In particular embodiments, the median thickness value may be used to represent the thickness of the viable epidermal area for each tissue section and the average thickness of the two tissue sections of a RHE sample 310 may be used to represent a single RHE sample 310. FIG. 5B illustrates an example extraction of thickness of a tissue sample. […] The digital pathology image processing system 110 may then quantify, based on the centerline, a thickness value for each of the plurality of locations. […] This way, the thickness of each tissue sample (e.g., RHE sample 310) may be normalized. FIG. 5C illustrates an example normalization of the tissue thickness. […] The left subfigure of FIG. 5C may show the originally measured thickness whereas the right subfigure of FIG. 5C may show the normalized thickness. Although this disclosure describes calculating normalized thickness in a particular manner, this disclosure contemplates calculating normalized thickness in any suitable manner. As an example and not by way of limitation, the digital pathology image processing system may determine a plurality of stepwise thickness measurements along an axis determined based on the epidermal layer, calculate a length and area of the epidermal layer with the thickness being derived from them, and then calculate the normalized thickness accordingly.
The embodiments disclosed herein further conduct a retrospective study based on RHE samples 310 from five studies that evaluated the skin toxicity of various compounds. The 3D in vitro human skin model was used for all studies. A total of 31 compounds with known or suspected clinical skin toxicity were evaluated for skin toxicity, some of which were evaluated in more than one study. Upon receipt of the RHE samples 310, each tissue culture insert was transferred to a well of 6-well plate containing 1 mL/well of pre-warmed maintenance media and kept dry on top to maintain an air-liquid interface. The RHE samples 310 were equilibrated at 37° C., 5% CO2 overnight, and fed with fresh media the next day. One day later, the RHE samples 310 were subjected to 4-day daily basolateral treatment with test articles at various concentrations, or vehicle control DMSO at 0.5%.

[3] = clinical exposure, maximal free concentrations measured in plasma
[4] = marked *: plasma protein binding unavailable, total concentration used
[5] = mean, normalized to control, test concentration 2 uM
[6] = mean, normalized to control, test concentration 10 uM

Row | Structure (SMILES) | Cmax_free [1, 3] | Skin tox. (skin) | clinical toxicity (skin) | change in epidermal thickness versus control (FIG. 11A) [2] | Normalized thickness ([2]; human, 4 days, 1 uM) | Normalized thickness ([2]; human, 4 days, 10 uM) | other results
1 | CN(C)C/C=C/C(=O)Nc1cc2c(Nc3ccc(F)c(Cl)c3)ncnc2cc1O[C@H]1CCOC1 [Afatinib] | 0.0042 µM | Yes | demonstrated clinical toxicity | significant decrease in epidermal thickness | 0.70 | 0.77 | 
2 | Cc1nc(NC(=O)N2CCC[C@H]2C(N)=O)sc1-c1ccnc(C(C)(C)C(F)(F)F)c1 [Alpelisib] | 0.61 µM | Yes | demonstrated clinical toxicity | significant decrease in epidermal thickness |  |  | Normalized thickness ([2]; human, 4 days, 0.32 uM): 0.75; Normalized thickness ([2]; human, 4 days, 3.2 uM): 0.45
3 | O=C(c1ccc(F)c(F)c1Nc1ccc(I)cc1F)N1CC(O)([C@@H]2CCCCN2)C1 [Cobimetinib] | 0.03 µM | Yes | demonstrated clinical toxicity | significant decrease in epidermal thickness | 0.71 |  | Normalized thickness ([2]; human, 4 days, 0.02 uM): 0.91
4 | C#Cc1cccc(Nc2ncnc3cc(OCCOC)c(OCCOC)cc23)c1 [Erlotinib] | 0.38 µM | Yes | demonstrated clinical toxicity | significant decrease in epidermal thickness | 0.53 | 0.41 | Normalized thickness ([2]; human, 4 days, 2 uM): 0.75
5 | CC[C@H](Nc1ncnc2[nH]cnc12)c1nc2cccc(F)c2c(=O)n1-c1ccccc1 [Idelalisib] | 0.84 µM | Yes |  |  |  |  | Normalized thickness ([2]; human, 4 days, 0.08 uM): 0.95; Normalized thickness ([2]; human, 4 days, 0.8 uM): 1.00
6 | Cn1cc(-c2ccc3nnc(C(F)(F)c4ccc5ncccc5c4)n3n2)cn1 [Jnj-38877605] |  | No |  |  |  |  | Cmax_free [1, 4]: 0.13* uM; Normalized thickness [2, 5]: 0.82; Normalized thickness [2, 6]: 0.91
7 | CS(=O)(=O)CCNCc1ccc(-c2ccc3ncnc(Nc4ccc(OCc5cccc(F)c5)c(Cl)c4)c3c2)o1 [Lapatinib] | 0.000039 µM | Yes | demonstrated clinical toxicity | significant decrease in epidermal thickness | 0.66 | 0.47 | 
8 | C=CC(=O)Nc1cc(Nc2nccc(-c3cn(C)c4ccccc34)n2)c(OC)cc1N(C)CCN(C)C [Osimertinib] | 0.025 µM | Yes | demonstrated clinical toxicity | significant decrease in epidermal thickness | 0.61 | 0.76 | Normalized thickness ([2]; human, 4 days, 0.3 uM): 0.85; median normalized thickness ([2]; human, 4 days, 300 nM): 0.80; Normalized thickness ([2]; human, 4 days, 3 uM): 0.45
9 | CC(=O)c1c(C)c2cnc(Nc3ccc(N4CCNCC4)cn3)nc2n(C2CCCC2)c1=O [Palbociclib] |  | Yes |  |  |  |  | Normalized thickness ([2]; human, 4 days, 0.023 uM): 1.02; Normalized thickness ([2]; human, 4 days, 0.23 uM): 0.99
10 | OCCn1cc(-c2cnc3nnn(Cc4ccc5ncccc5c4)c3n2)cn1 [Pf-04217903] | 0.015 µM | No | did not exhibit clinical toxicity |  |  |  | normalized epidermal thickness decrease ([2]; 10 µM): greater than 20%; Normalized thickness [2, 5]: 0.91; Normalized thickness [2, 6]: 0.72; change in epidermal thickness versus control (FIG. 11A) ([2]; normalized viable epidermal thickness, multiple comparison, result in words): significant decrease in epidermal thickness
11 | CS(=O)(=O)N1CCN(Cc2cc3nc(-c4cccc5[nH]ncc45)nc(N4CCOCC4)c3s2)CC1 [Pictilisib] |  |  |  | significant decrease in epidermal thickness | 0.46 |  | Normalized thickness ([2]; human, 4 days, 0.02 uM): 0.94
12 | C=CC(=O)N1CCC(Oc2cc3c(Nc4ccc(Cl)c(Cl)c4F)ncnc3cc2OC)CC1 [Poziotinib] | 0.0021 µM | Yes | demonstrated clinical toxicity | significant decrease in epidermal thickness | 0.65 | 0.73 | Normalized thickness ([2]; human, 4 days, 0.3 uM): 0.72
13 | N#CC[C@H](C1CCCC1)n1cc(-c2ncnc3[nH]ccc23)cn1 [Ruxolitinib] | 0.033 µM | No | did not exhibit clinical toxicity | significant decrease in epidermal thickness |  | 0.81 | Normalized thickness ([2]; human, 4 days, 2 uM): 0.85
14 | CNC(=O)c1cc(Oc2ccc(NC(=O)Nc3ccc(Cl)c(C(F)(F)F)c3)cc2)ccn1 [Sorafenib] | 0.07 µM | Yes |  | failed to cause any meaningful change in epidermal thickness |  |  | Normalized thickness ([2]; human, 4 days, 0.5 uM): 0.87; Normalized thickness ([2]; human, 4 days, 5 uM): 0.85
15 | C[C@@H]1CCN(C(=O)CC#N)C[C@@H]1N(C)c1ncnc2[nH]ccc12 [Tofacitinib] |  | No | did not exhibit clinical toxicity | significant decrease in epidermal thickness |  | 0.82 | Normalized thickness ([2]; human, 4 days, 2 uM): 0.84
16 | COC(=O)Nc1nc2cc(C3(O)c4ccccc4C(=O)N3c3cc(Cl)ccc3C)ccc2[nH]1 (centres unmarked) [XL281] |  | No |  | increase in epidermal thickness |  |  | Cmax_free [1, 4]: 4.5* uM; Normalized thickness ([2]; human, 4 days, 0.5 uM): 1.14; Normalized thickness ([2]; human, 4 days, 5 uM): 0.89
